From US11802108B2, “Compounds for the modulation of cyclophilins function” (The University Court of The University of Edinburgh, priority 2018, dated 2023)
Structures can show the parent of a compound that is named as a salt.

Columns and labels:
[1] = target: T1, CypA (Homo sapiens (Human), UniProt P62937); assay: X-ray co-crystal structure with CypA; on CypA X-ray co-crystal: key: Y: observed in cocrystal; N: not observed in cocrystal; type: binding; conditions: for CypA X-ray co-crystal: apo CypA crystals soaked with 5 mM ligand; for binding mode in co-crystal structure of CypA: FIG. 1
Description: Purified and his-tag-cleaved CypA was buffer-exchanged into PBS and concentrated to ˜29 mg ml^−1. For crystallisation 1 μL of protein was mixed with an equal volume of the well solution, consisting of 100 mM Tris-HCl pH8.0 and 20-22% v/v PEG 8000, and crystal formation came about after equilibration overnight in 6° C. by vapour diffusion using the hanging drop method over 1 mL of the same well solution. Apo CypA crystals were soaked overnight into different ligand solution consisting of 100 mM Tris-HCl pH 8.0, 35% w/v PEG 8000, 5% v/v Glycerol, 5% v/v DMSO and 5 mM ligand, before flash frozen into liquid nitrogen. X-ray data were collected at the Diamond synchrotron-radiation facility in Oxford-shire, England at 100K. Structures were solved by molecular replacement using DIMPLE from the CCP4i suite. Modelled structures were visualised and manually adjusted as needed using Coot10 and further refined using REFMAC5 from CCP4i.
FIG. 1A summarises the mode of binding of certain prior-art urea small molecule Cyp inhibitors.

[2] = target: T1, CypA; assay: Isothermal titration calorimetry (ITC) binding to CypA; conditions: 25° C.
Description: All ITC experiments for the ester series compounds were carried out at 25° C. on a MicroCal Auto iTC200 (GE Healthcare) instrument. The buffer used in the titrations of the compounds belonging to the ester series was 50 mM phosphate buffer, pH 6.5 and the concentration of DMSO was 2% v/v for all the compounds, unless otherwise stated in Table 51. Final compound solutions were heated to 65° C. and/or sonicated prior to the experiment. Each experiment consisted of an initial injection of 0.4 μL followed by nineteen 2 μL injections and in most of cases for these compounds, the “continue injections” protocol was used leaving the cell intact and performing a second series of titrations using the above protocol to achieve saturation. Control experiments were performed, where each compound was titrated into buffer and when small amount of heat was detected due to heat of dilution, it was subtracted when processing the data using a linear fit method. In all cases the first injection was omitted from the data processing. All data were analysed using the MicroCal PEAQ-ITC Analysis software.
The buffer used for these titrations was: PBS, 0.05% v/v P20 surfactant, 50 μM EDTA in presence of 2% v/v EtOH and the pH was set to 7.4.

[3] = test system: MDA-MB-231 cells; assay: Growth inhibition (GI50) of MDA-MB-231 cells, IncuCyte imaging; type: cell-based; conditions: MDA-MB-231, 120 hours imaging
Description: (§1) The latter medium with 2000 U/mL IL-2 was used for NK92 cell killing assays.
(§2) To determine the direct effect of the compounds on cell proliferation, cells were seeded at a density of 500 cells per well in cell culture medium in 384-well cell culture plates and allowed to adhere overnight (about 16 hours), incubated in a humidified atmosphere with 5% CO2. Subsequently, cell culture medium was refreshed, supplemented with Draq 7 (3 μM final concentration) and test compound at the indicated concentrations with three wells being treated for each condition tested. Cells were then returned to the cell culture incubator and imaged with a 10× objective every 3 hours for 120 hours using an IncuCyte ZOOM microscope from Essen Bioscience.
(§3) Using the IncuCyte ZOOM software, custom image analysis procedures were developed and applied for each cell line to determine cell confluency, cell number and number of dead cells over the time course of the experiment.
(§4) Statistical analyses in cell viability assays to compare the effect of compound treatment to treatment with vehicle were performed using GraphPad Prism 6 (2-way ANOVA with Bonferroni correction post hoc).

[4] = test system: MDA-MB-231 cells in presence of NK92 cells; assay: NK92 immune cell killing of MDA-MB-231 cancer cells; type: cell-based; conditions: with NK92 cells
Description: as §1
(§5) NK92 cells were then added at a density of 1000 cells per well and 10 μM test compound was added. Cells were imaged with a 10× objective every 3 hours for 120 hours using an IncuCyte ZOOM microscope from Essen Bioscience.
(§6) Apoptotic fraction of the population (number of nuclei with co-localized red and green fluorescence divided by total number of red nuclei in the population) and fold increase in number of red nuclei were determined at various time points.

[5] = target: T1, CypA; assay: Surface plasmon resonance (SPR) binding to His-CypA; conditions: 25° C., triplicate
Description: (§7) SPR measurements were performed on a BIAcore T200 instrument (GE Healthcare). Ni^2+-nitrilotriacetic acid (NTA) sensor chips, 1-ethyl-3-(3-[…]) carbodiimide hydrochloride (EDC) and Nhydroxysuccinimide (NHS) were purchased from GE Healthcare.
(§8) Pure His-cyclophilins were immobilized and covalently stabilized on the NTA sensor chip according to the protocol described in Thermo-kinetic analysis space expansion for cyclophilin-ligand interactions—identification of a new nonpeptide inhibitor using Biacore T200.
(§9) Single cycle kinetic titration binding experiments were performed using SPR in triplicate at 25° C. […] The sensor surface was regenerated between experiments by dissociating any formed complex in running buffer for at least 1,200 seconds.
(§10) Kinetic titration binding experiments were performed in triplicate at 25° C. […] The sensor surface was regenerated between experiments by dissociating any formed complex in running buffer for at least a further 600 seconds.

[6] = target: CypB (Homo sapiens (Human), UniProt P23284); assay: Surface plasmon resonance (SPR) binding to His-CypB; conditions: 25° C., triplicate
Description: as §9, §10

[7] = target: CypD (Homo sapiens (Human), UniProt P30405); assay: Surface plasmon resonance (SPR) binding to His-CypD; conditions: 25° C., triplicate
Description: as §7, §8, §9, §10

[8] = test system: MDA-MB-231 cells; assay: Cytotoxicity (cell death, Draq7) in MDA-MB-231 cells; type: cell-based
Description: as §1, §2, §3, §4

[9] = test system: NK92 cells; assay: Proliferation of NK92 cells; type: cell-based
Description: as §1, §5, §6

[10] = test system: IMR-90 cells; assay: Cytotoxicity (cell death, Draq7) in IMR-90 cells; type: cell-based
Description: as §1, §2, §3, §4

T1 sequence (P62937 whole entry, the tested form may be a part): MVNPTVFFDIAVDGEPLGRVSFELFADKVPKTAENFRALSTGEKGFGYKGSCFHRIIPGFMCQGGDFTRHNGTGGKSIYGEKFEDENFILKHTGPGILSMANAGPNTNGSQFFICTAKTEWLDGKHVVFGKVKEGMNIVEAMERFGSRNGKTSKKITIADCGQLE
CypB, sequence (P23284 34-216): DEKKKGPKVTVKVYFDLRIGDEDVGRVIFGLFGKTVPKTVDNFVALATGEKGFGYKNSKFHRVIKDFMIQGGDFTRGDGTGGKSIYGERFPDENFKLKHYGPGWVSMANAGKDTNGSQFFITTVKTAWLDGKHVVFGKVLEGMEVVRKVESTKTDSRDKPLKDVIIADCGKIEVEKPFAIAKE
CypD, sequence (P30405 30-207): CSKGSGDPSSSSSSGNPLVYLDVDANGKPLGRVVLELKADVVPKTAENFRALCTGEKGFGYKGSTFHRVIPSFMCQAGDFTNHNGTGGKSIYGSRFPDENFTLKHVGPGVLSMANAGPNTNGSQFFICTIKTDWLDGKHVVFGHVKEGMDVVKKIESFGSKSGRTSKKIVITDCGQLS

## CCOC(=O)CCn1cc(CN(Cc2ccc(N)cc2)C(=O)NCC(=O)N2CCCC2c2ccccc2Br)nn1.Cl (stereo not shown) [Compound 6, Ethyl 3-[4-({[(4-aminophenyl)methyl]({2-[2-(2-bromophenyl)pyrrolidin-1-yl]-2-oxoethyl}carbamoyl)amino}methyl)-1H-1,2,3-triazol-1-yl]propanoatehydrochloride]
[1]
  CypA X-ray co-crystal: N
[2]
  Kd: 0.3 ± 0.08 µM

## CCOC(=O)CNC(=O)N(Cc1ccc(N)cc1)Cc1cn(C)nn1.Cl [Compound 18, Ethyl 2-({[(4-aminophenyl)methyl][(1-methyl-1H-1,2,3-triazol-4-yl)methyl]carbamoyl}amino)acetate hydrochloride]
[1]
  CypA X-ray co-crystal: Y
[2]
  Kd: 135 ± 6 µM

## CCOC(=O)CNC(=O)N(CC#N)Cc1ccc(N)cc1.Cl [Compound 13, Ethyl 2-({[(4-aminophenyl)methyl](cyanomethyl)carbamoyl}amino)acetate hydrochloride]
[1]
  CypA X-ray co-crystal: Y
[2]
  Kd: 990 ± 20 µM

## CCOC(=O)CNC(=O)N(CC)Cc1ccc2c(c1)[C@H]1CC(N2)[C@H](O)CO1 (stereo in doubt) [Compound 23, Ethyl 2-{[ethyl({[(1R,9S,10S)-10-hydroxy-12-oxa-8-azatricyclo[7.3.1.0^2,7]trideca-2,4,6-trien-4-yl]methyl})carbamoyl]amino}acetate hydrochloride]
[1]
  CypA X-ray co-crystal: N
[2]
  Kd: 700 ± 235 µM

## C#CCN(Cc1ccc(N)cc1)C(=O)NCC(=O)OCC [Compound 22, Ethyl 2-({[(4-aminophenyl)methyl](prop-2-yn-1-yl)carbamoyl}amino)acetate]
[1]
  CypA X-ray co-crystal: Y
[2]
  Kd: > 1000 µM

## Cl.Nc1ccc(CN(CC2CC2)C(=O)NCC(=O)N2CCCC2c2ccccc2Br)cc1 (stereo not shown) [Compound 11, 1-[(4-aminophenyl)methyl]-3-{2-[2-(2-bromophenyl)pyrrolidin-1-yl]-2-oxoethyl}-1-(cyclopropylmethyl)urea]
[1]
  CypA X-ray co-crystal: Y
[2]
  Kd: ~10 µM

## CCOC(=O)CNC(=O)N(Cc1ccc(N)cc1)CC1CC1.Cl [Compound 17, Ethyl 2-({[(4-aminophenyl)methyl](cyclopropylmethyl)carbamoyl}amino)acetate hydrochloride]
[1]
  CypA X-ray co-crystal: Y

## Cl.Cn1cc(CN(Cc2ccc(N)cc2)C(=O)NCC(=O)N2CCCC2c2ccccc2Cl)nn1 (stereo not shown) [Compound 8, 1-[(4-aminophenyl)methyl]-3-{2-[2-(2-chlorophenyl)pyrrolidin-1-yl]-2-oxoethyl}-1-[(1-methyl-1H-1,2,3-triazol-4-yl)methyl]urea hydrochloride]
[1]
  CypA X-ray co-crystal: N
[2]
  Kd: 1.1 ± 0.4 µM

## CCOC(=O)[C@H](CCSC)NC(=O)N(CC)Cc1ccc(N)cc1 [Compound 15, Ethyl (2S)-2-({[(4-aminophenyl)methyl](ethyl)carbamoyl}amino)-4-(methylsulfanyl)butanoate hydrochloride]
[1]
  CypA X-ray co-crystal: Y
[2]
  Kd: 35 ± 5 µM

## CCN(Cc1ccc(N)cc1)C(=O)NCC(=O)N1CCCC1c1ccccc1 (stereo not shown) [Compound 9, 1-[(4-aminophenyl)methyl]-3-{2-[2-(phenyl)pyrrolidin-1-yl]-2-oxoethyl}-1-ethylurea]
[1]
  CypA X-ray co-crystal: Y
[2]
  Kd: 35 ± 5 µM

## C/C=C/CC(C)C(O)C1C(=O)NC(CC)C(=O)N(C)CC(=O)N(C)C(CC(C)C)C(=O)NC(C(C)C)C(=O)N(C)C(CC(C)C)C(=O)NC(C)C(=O)NC(C)C(=O)N(C)C(CC(C)C)C(=O)N(C)C(CC(C)C)C(=O)N(C)C(C(C)C)C(=O)N1C (stereo not shown) [CsA, Cyclosporin A, reference compound]
[3]
  GI50: 6.2 ± 0.8 µM
[4]
  Apoptotic fraction of the MDA-MB-231 population in the presence of NK92 cells after 72 h @ 10 μM: 0.38 ± 0.01

## CCN(Cc1ccc(N)cc1)C(=O)NCC(=O)N1CCCC1c1ccccc1Br.Cl (stereo not shown) [Compound 10, 1-[(4-aminophenyl)methyl]-3-{2-[2-(2-bromophenyl)pyrrolidin-1-yl]-2-oxoethyl}-1-ethylurea hydrochloride]
[1]
  CypA X-ray co-crystal: N
[2]
  Kd: ~25 µM

## CCOC(=O)CNC(=O)N(Cc1ccc(N)cc1)Cc1nnn(C)n1.Cl [Compound 19, Ethyl 2-({[(4-aminophenyl)methyl][(2-methyl-2H-1,2,3,4-tetrazol-5-yl)methyl]carbamoyl}amino)acetate hydrochloride]
[1]
  binding mode in co-crystal structure of CypA: type-II binding mode
  CypA X-ray co-crystal: Y
[2]
  Kd: 184 ± 13 µM

## CCOC(=O)CNC(=O)N(Cc1ccc(N)cc1)Cc1nnn[nH]1.Cl [Compound 14, Ethyl 2-({[(4-aminophenyl)methyl][(1H-1,2,3,4-tetrazol-5-yl)methyl]carbamoyl}amino)acetate hydrochloride]
[1]
  CypA X-ray co-crystal: N
[2]
  Kd: 139 ± 4 µM

## CCCN(Cc1ccc(N)cc1)C(=O)NCC(=O)OCC [Compound 16, Ethyl 2-({[(4-aminophenyl)methyl](propyl)carbamoyl}amino)acetate]
[1]
  CypA X-ray co-crystal: Y
[2]
  Kd: 266 ± 3 µM

## CCOC(=O)CNC(=O)N(CC)Cc1ccc(N)cc1.Cl [Compound 12, Ethyl 2-({[(4-aminophenyl)methyl](ethyl)carbamoyl}amino)acetate hydrochloride]
[1]
  binding mode in co-crystal structure of CypA: type-I binding mode
  CypA X-ray co-crystal: Y
[2]
  Kd: 200 ± 5 µM

## CCOC(=O)Cn1cc(CN(Cc2ccc(N)cc2)C(=O)NCC(=O)N2CCCC2c2ccccc2Br)nn1.Cl (stereo not shown) [Compound 5, Ethyl 2-[4-({[(4-aminophenyl)methyl]({2-[2-(2-bromophenyl)pyrrolidin-1-yl]-2-oxoethyl}carbamoyl)amino}methyl)-1H-1,2,3-triazol-1-yl]acetate hydrochloride]
[1]
  CypA X-ray co-crystal: N
[5]
  Kd: 4.3 ± 1 µM
[2]
  Kd: ~3 µM
[6]
  Kd: 1.9 ± 0.9 µM
[7]
  Kd: 1 ± 0.4 µM

## C#CCN(Cc1ccc(N)cc1)C(=O)NCC(=O)N1CCCC1c1ccccc1Br.Cl (stereo not shown) [Compound 1, 1-[(4-aminophenyl)methyl]-3-{2-[2-(2-bromophenyl)pyrrolidin-1-yl]-2-oxoethyl}-1-(prop-2-yn-1-yl)urea hydrochloride]
[8]
  Toxicity MDA-MB-231 @10 μM: N
[3]; Homo sapiens
  GI50: 5.1 ± 0.9 µM
[1]
  CypA X-ray co-crystal: Y
[4]
  Apoptotic fraction of the MDA-MB-231 population in the presence of NK92 cells after 72 h @ 10 μM: 0.64 ± 0.03
  Fold increase MDA-MB-231 cells in presence of NK92 cells after 72 h @ 10 μM: 2.0 ± 0.3
[5]
  Kd: 3.2 ± 1.3 µM
[2]
  Kd: 2 ± 1 µM
[6]
  Kd: 1.4 ± 0.4 µM
[9]
  Fold increase in NK92 cells after 72 h @ 10 μM: 4.3 ± 0.7
[7]
  Kd: 0.2 ± 0.1 µM
[10]
  Toxicity IMR-90 @10 μM: N
